The assay deals with MAGE-A11:PCF11 (Homo sapiens (Human), UniProt P43364). Description: TR-FRET single point screening at 15 μM. The class given is binding. On the set-up: unit not given here. The procedure, abridged: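 Single-point screen at 15 μM (0.25% DMSO) measuring disruption of GST-MAGEA11 (5 nM) binding to FAM-PCF11_4 peptide (200 nM) detected by Tb-anti-GST (5 nM). Buffer 50 mM Tris pH 7.5, 20 mM MgCl2, 0.1 mg/ml BSA, 1 mM DTT; 90 min at ~25 °C; 520/490 nm ratio converted to % inhibition versus controls.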
Sequence of MAGE-A11:PCF11 (P43364 218-429): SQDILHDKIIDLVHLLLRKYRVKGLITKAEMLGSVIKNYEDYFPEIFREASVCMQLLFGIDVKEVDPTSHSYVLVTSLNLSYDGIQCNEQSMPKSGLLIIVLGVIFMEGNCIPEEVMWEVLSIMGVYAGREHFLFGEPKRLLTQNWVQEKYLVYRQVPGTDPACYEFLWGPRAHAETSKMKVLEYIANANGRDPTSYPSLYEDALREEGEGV
A general note: TR-FRET usually uses a lanthanide donor and a delayed reading to cut background.

Setting [1] is: single point TR-FRET screening of quinoline compounds against MAGE-A11:PCF11, 15 μM.
Setting [2] is: single point TR-FRET screening at 15 μM against MAGE-A11:PCF11.

`CCCCCNCCCNc1ccnc2cc(Cl)ccc12` [SJ000523057] gave a TR-FRET signal under setting [1] of 25.82.
For the molecule `Cc1c(CNCCCNc2ccnc3cc(Cl)ccc23)c(=O)n(-c2ccccc2)n1C` [SJ000523058], the TR-FRET signal under setting [1] was determined as 5.584.
`O=[N+]([O-])c1ccccc1-c1ccc(CNCCCNc2ccnc3cc(Cl)ccc23)o1` [SJ000523068] registered a TR-FRET signal under setting [1] of 21.65.
Consider `Clc1cccc(-c2ccc(CNCCCNc3ccnc4cc(Cl)ccc34)o2)c1` [SJ000523069], for which the TR-FRET signal under setting [1] is 33.51.
Same read-out and setting: with `CCCN(CCCNc1ccnc2cc(C(F)(F)F)ccc12)Cc1ccc(F)cc1` [SJ000523070] the figure was 26.44.
The same measure, in the same setting: the value for `CCCN(CCCNc1ccnc2cc(C(F)(F)F)ccc12)Cc1ccccc1[N+](=O)[O-]` [SJ000523071] was −7.745; that for `CCCN(CCCNc1ccnc2cc(C(F)(F)F)ccc12)Cc1ccccc1OC` [SJ000523072] was 32.61; that for `CCCN(CCCNc1ccnc2cc(C(F)(F)F)ccc12)Cc1ccccc1C(=O)O` [SJ000523073] was 16.86.
The same measure, in the same setting: with `CCCN(CCCNc1ccnc2cc(C(F)(F)F)ccc12)Cc1cccc2ccccc12` [SJ000523074] the figure was 14.32.
For `CCCN(CCCNc1ccnc2cc(C(F)(F)F)ccc12)Cc1ccc2ccccc2c1` [SJ000523075], the TR-FRET signal under setting [1] stood at 11.39.
Under setting [1], `CCCN(CCCNc1ccnc2cc(C(F)(F)F)ccc12)Cc1cccc(C)c1` [SJ000523076] came in with a TR-FRET signal of 20.17.
The same measure, in the same setting: with `CCCN(CCCNc1ccnc2cc(C(F)(F)F)ccc12)Cc1ccc(N(C)C)cc1` [SJ000523077] the figure was 23.71; with `CCCN(CCCNc1ccnc2cc(C(F)(F)F)ccc12)Cc1ccc(Cl)cc1Cl` [SJ000523078], 3.83; with `CCCN(CCCNc1ccnc2cc(C(F)(F)F)ccc12)Cc1ccc(OC)c(OC)c1` [SJ000523079], 14.66.
The same measure, in the same setting: with `CCCN(CCCNc1ccnc2cc(C(F)(F)F)ccc12)CCCc1ccccc1` [SJ000523080] the figure was 28; with `CCCN(CCCNc1ccnc2cc(C(F)(F)F)ccc12)CC(C)CC` (centres unmarked) [SJ000523081], 22.28; with `CCCN(CCCNc1ccnc2cc(C(F)(F)F)ccc12)Cc1cc(C)ccc1C` [SJ000523082], 21.74.
Still for that read-out and setting: the value for `CCCCCCN(CCC)CCCNc1ccnc2cc(C(F)(F)F)ccc12` [SJ000523083] was 34.95.
On to `Cc1cc(C)c(CN2CCC(Nc3ccnc4cc(Cl)ccc34)CC2)c(C)c1` [SJ000523084], for which the TR-FRET signal under setting [2] came to 11.75.
Still for that read-out and setting: with `Clc1ccc2c(NC3CCN(CC4CCCCC4)CC3)ccnc2c1` [SJ000523085] the figure was 15.43; with `CCC(CC)CN1CCC(Nc2ccnc3cc(Cl)ccc23)CC1` [SJ000523086], 9.754.
On to `Clc1ccc2c(NC3CCN(Cc4ccc5c(c4)OCO5)CC3)ccnc2c1` [SJ000523087], for which, under setting [2], the TR-FRET signal is on record as 7.643.
The molecule `CCCCCN1CCC(Nc2ccnc3cc(Cl)ccc23)CC1` [SJ000523088] registered a TR-FRET signal under setting [2] of 12.17.
Same read-out and setting: the value for `Fc1ccc(CN2CCC(Nc3ccnc4cc(Cl)ccc34)CC2)cc1F` [SJ000523089] was −1.958; that for `COc1ccc(CN2CCC(Nc3ccnc4cc(Cl)ccc34)CC2)cc1` [SJ000523090] was 23.72; that for `Fc1ccccc1CN1CCC(Nc2ccnc3cc(Cl)ccc23)CC1` [SJ000523091] was −0.9977.
Still for that read-out and setting: with `Fc1cccc(CN2CCC(Nc3ccnc4cc(Cl)ccc34)CC2)c1` [SJ000523092] the figure was 6.622.
The same measure, in the same setting: the value for `Fc1ccc(CN2CCC(Nc3ccnc4cc(Cl)ccc34)CC2)cc1` [SJ000523093] was 10.66.
On to `O=[N+]([O-])c1ccccc1CN1CCC(Nc2ccnc3cc(Cl)ccc23)CC1` [SJ000523094], for which the TR-FRET signal under setting [2] was −2.026.
The same measure, in the same setting: with `O=[N+]([O-])c1cccc(CN2CCC(Nc3ccnc4cc(Cl)ccc34)CC2)c1` [SJ000523095] the figure was 0.8927.
On the same count and under the same terms, with `O=[N+]([O-])c1ccc(CN2CCC(Nc3ccnc4cc(Cl)ccc34)CC2)cc1` [SJ000523096] the figure was −4.954; with `COc1ccccc1CN1CCC(Nc2ccnc3cc(Cl)ccc23)CC1` [SJ000523097], 8.596; with `O=C(O)c1ccccc1CN1CCC(Nc2ccnc3cc(Cl)ccc23)CC1` [SJ000523098], −2.194.
On the same count and under the same terms, with `Clc1ccc2c(NC3CCN(Cc4cccc5ccccc45)CC3)ccnc2c1` [SJ000523099] the figure was −6.179; with `Clc1ccc2c(NC3CCN(Cc4ccc5ccccc5c4)CC3)ccnc2c1` [SJ000523100], 4.171.
On to `Cc1cccc(CN2CCC(Nc3ccnc4cc(Cl)ccc34)CC2)c1` [SJ000523101], for which the TR-FRET signal under setting [2] was determined as 18.54.
The same measure, in the same setting: the value for `CN(C)c1ccc(CN2CCC(Nc3ccnc4cc(Cl)ccc34)CC2)cc1` [SJ000523102] was 13.09.
`COc1ccc(CN2CCC(Nc3ccnc4cc(Cl)ccc34)CC2)cc1OC` [SJ000523103] registered a TR-FRET signal under setting [2] of 11.75.
On the same count and under the same terms, with `Clc1ccc2c(NC3CCN(CCCc4ccccc4)CC3)ccnc2c1` [SJ000523104] the figure was 20.65; with `CCC(C)CN1CCC(Nc2ccnc3cc(Cl)ccc23)CC1` (centres unmarked) [SJ000523105], 11.19.
Same read-out and setting: with `Cc1ccc(C)c(CN2CCC(Nc3ccnc4cc(Cl)ccc34)CC2)c1` [SJ000523106] the figure was 18.68; with `COc1cccc(CN2CCC(Nc3ccnc4cc(Cl)ccc34)CC2)c1` [SJ000523107], 3.149.
On the same count and under the same terms, the value for `CCCCCCN1CCC(Nc2ccnc3cc(Cl)ccc23)CC1` [SJ000523108] was 29.3.
Consider `CCCN(CCCNc1c2ccc(Cl)cc2nc2ccc(OC)cc12)CC1CCOC1` (centres unmarked) [SJ000575149], for which, under setting [1], the TR-FRET signal is −35.94.
On the same count and under the same terms, with `CCCN(CCCNc1c2ccc(Cl)cc2nc2ccc(OC)cc12)CC(C)C` [SJ000575150] the figure was −21.37; with `CCCN(CCCCCC(=O)OC)CCCNc1c2ccc(Cl)cc2nc2ccc(OC)cc12` [SJ000575151], −37.41; with `CCCN(CCCNc1c2ccc(Cl)cc2nc2ccc(OC)cc12)Cc1cccnc1` [SJ000575152], −23.4.
Molecule `CCCN(CCCNc1ccnc2cc(C(F)(F)F)ccc12)Cc1nccn1C` [SJ000575170] returned a TR-FRET signal under setting [1] of 7.124.
Under setting [1], `CCCN(CCCNc1ccnc2cc(C(F)(F)F)ccc12)Cc1ccc2[nH]ccc2c1` [SJ000575171] came in with a TR-FRET signal of 32.89.
On the same count and under the same terms, with `CCCN(CCCNc1ccnc2cc(C(F)(F)F)ccc12)Cc1scnc1C` [SJ000575179] the figure was 5.164.
The same measure, in the same setting: with `CCCN(CCCNc1ccnc2cc(C(F)(F)F)ccc12)Cc1cccnc1Br` [SJ000575180] the figure was 5.164.
Same read-out and setting: with `CCCN(CCCNc1ccnc2cc(C(F)(F)F)ccc12)Cc1ncc[nH]1` [SJ000575181] the figure was 9.345; with `CCCN(CCCNc1ccnc2cc(C(F)(F)F)ccc12)Cc1cnn(C)c1` [SJ000575182], 15.68; with `CCCN(CCCNc1ccnc2cc(C(F)(F)F)ccc12)Cc1nccs1` [SJ000575189], 8.665.
As to `CCCN(CCCNc1ccnc2cc(C(F)(F)F)ccc12)CC1CCOC1` (centres unmarked) [SJ000575190], the TR-FRET signal under setting [1] is listed as 1.787.
The same measure, in the same setting: with `CCCN(CCCCCC(=O)OC)CCCNc1ccnc2cc(C(F)(F)F)ccc12` [SJ000575191] the figure was 5.6; with `Clc1ccc2c(NCCCNCc3ccc[nH]3)ccnc2c1` [SJ000575192], 52.99; with `Clc1ccc2c(NCCCNCc3ccc(Br)s3)ccnc2c1` [SJ000575193], 15.34.
Still for that read-out and setting: with `O=C(C[C@H]1CC[C@]2(CC1)OO[C@]1(O2)C2CC3CC(C2)CC1C3)NCCCNc1ccnc2cc(Cl)ccc12` [SJ000578380] the figure was 28.48.
On to `O=C(C[C@H]1CC[C@]2(CC1)OO[C@]1(O2)C2CC3CC(C2)CC1C3)NCCCCNc1ccnc2cc(Cl)ccc12` [SJ000578384], for which, under setting [2], the TR-FRET signal is listed as 25.12.
Still for that read-out and setting: with `Cc1cc(NC(=O)CN[C@H]2CCN(Cc3ccccc3)C2)c2ccccc2n1` [SJ000832405] the figure was 4.364; with `Cc1cc(NC(=O)CN[C@H]2CCN(Cc3cccc(F)c3)C2)c2ccccc2n1` [SJ000832581], −1.278.

For the origin of these results see patent US20240246941A1, “SUBSTITUTED 4-(3-AMINOPROP-1-YL)AMINOQUINOLINE ANALOGS AS MODULATORS OF MELANOMA-ASSOCIATED ANTIGEN 11 UBIQUITIN LIGASE” (ST. JUDE CHILDREN'S RESEARCH HOSPITAL, INC., priority 2020, published 2024).
